Results reported in paper PMC5025758 (Nature Communications, 2016).

B1: β-ketoacyl synthase KasA (Mycobacterium tuberculosis) (enzyme)
chain: SQPSTANGGFPSVVVTAVTATTSISPDIESTWKGLLAGESGIHALEDEFVTKWDLAVKIGGHLKDPVDSHMGRLDMRRMSYVQRMGKLLGGQLWESAGSPEVDPDRFAVVVGTGLGGAERIVESYDLMNAGGPRKVSPLAVQMIMPNGAAAVIGLQLGARAGVMTPVSACSSGSEAIAHAWRQIVMGDADVAVCGGVEGPIEALPIAAFSMMRAMSTRNDEPERASRPFDKDRDGFVFGEAGALMLIETEEHAKARGAKPLARLLGAGITSDAFHMVAPAADGVRAGRAMTRSLELAGLSPADIDHVNAHGTATPIGDAAEANAIRVAGCDQAAVYAPKSALGHSIGAVGALESVLTVLTLRDGVIPPTLNYETPDPEIDLDVVAGEPRYGDYRYAVNNSFGFGGHNVALAFGRY
notes: also called Rv2245

Assays:
KasA = KasA (Mycobacterium tuberculosis, UniProt P9WQD9); type: biochemical
crystal structure = molecular target: the molecule itself; assay: crystal structure

Sequence of KasA (P9WQD9 whole entry): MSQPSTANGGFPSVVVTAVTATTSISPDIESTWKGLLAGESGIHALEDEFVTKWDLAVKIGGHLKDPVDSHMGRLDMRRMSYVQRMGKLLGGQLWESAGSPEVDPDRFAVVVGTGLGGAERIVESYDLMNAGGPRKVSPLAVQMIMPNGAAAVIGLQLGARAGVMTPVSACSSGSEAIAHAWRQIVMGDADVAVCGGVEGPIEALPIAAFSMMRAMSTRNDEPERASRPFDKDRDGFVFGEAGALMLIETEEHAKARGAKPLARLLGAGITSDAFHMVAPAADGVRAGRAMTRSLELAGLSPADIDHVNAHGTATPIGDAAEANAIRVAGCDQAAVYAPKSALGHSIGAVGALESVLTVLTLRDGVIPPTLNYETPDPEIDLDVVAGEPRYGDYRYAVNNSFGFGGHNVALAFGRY

Row | Molecule | Kd (KasA) [µM] | stoichiometry N (crystal structure)
1 | CCCCS(=O)(=O)N(C)c1ccc2cnn(C)c2c1 [compound 2, inactive analogue 2] | 4.5 | 
2 | B1 |  | 2
